Experimental data as given in patent US6573286B1, “2-(2,6-disubstituted phenyl)-4-aryl-5-alkyl-1,3-oxazoline compounds” (Dow AgroSciences LLC, priority 2002, dated 2003).

Key:
Assay type in all cases: in vivo
[1] = test system: beet armyworm (Spodoptera exigua); experiment: Insecticidal test for beet armyworm, treated lepidopteran diet; conditions: 2nd instar larvae on treated diet, 5 days; for pest or weed control at 400 ppm: Spodoptera exigua, 120 h, read-out: BAW: activity against beet armyworm (% Control rating)
Description: (§1) Insecticidal test for tobacco budworm (Heliothis virescens), beet armyworm (Spodoptera exigua), and cabbage looper (Trichoplusia ni). To prepare test solution, the test compound was formulated at 400 ppm in 7.5 mL of 2 acetone:1 tap water. 250 μL of the test solution was pipetted upon the surface of 8 mL of lepidopteran diet (modified Shorey) contained in each of five one-ounce plastic cups (one cup=1 replication). […] After air-drying, the treated leaf discs were placed individually into one-ounce plastic cups. Each dried, treated cotton cotyledon disc was infested with a 2nd instar tobacco budworm larva, and each cabbage leaf disc was infested with a 2nd instar cabbage looper larva. Cups containing the treated substrates and larvae were capped and then held in a growth chamber at 25° C., 50-55% RH, and 14 hr light:10 hr dark for 5 days.

[2] = test system: cabbage looper (Trichoplusia ni); experiment: Insecticidal test for cabbage looper, treated cabbage leaf disc; conditions: 2nd instar larvae on dipped cabbage leaf discs, 5 days; for pest or weed control at 400 ppm: Trichoplusia ni, foliar, 120 h, read-out: CL: activity against cabbage looper (% Control rating)
Description: as §1

[3] = test system: two-spotted spider mite (Tetranychus urticae); experiment: Insecticidal test for two-spotted spider mite, ovicide method; conditions: ovicide method on cotton leaf discs, 6 days; for pest or weed control at 2.5 ppm: Tetranychus urticae, foliar, 144 h, read-out: SM: activity against two-spotted spider mite (% Control rating)
Description: Insecticidal test for two-spotted spider mite (Tetranychus urticae) Ovicide Method: Ten adult female two-spotted spider mites were placed on eight 2.2 cm leaf discs of cotton leaf, allowed to oviposit over 24 hours, and thereafter removed. […] Discs were placed on an agar substrate and held at 24° C. and 90% RH for 6 days.

[4] = test system: Sweetpotato Whitefly (Bemisia tabacia); experiment: Insecticidal test for Sweetpotato Whitefly, sprayed cotton plants; conditions: 200 ppm spray, large nymphs counted after 13 days
Description: Insecticidal test for Sweetpotato Whitefly (Bemisia tabacia) Four mg of each test compound were dissolved by adding 4 mL of a 90:10 acetone:ethanol solvent mixture to the vial containing the sample compound. This solution was added to 16 mL of water containing 0.05% Tween 20 surfactant to produce 20 mL of a 200 ppm spray solution. Five-week-old cotton plants reared in a greenhouse were stripped of all foliage except for the two uppermost true leaves that were greater than 5 cm in diameter. These plants were then placed into a laboratory colony of whiteflies for two days for oviposition by the colony females. All whiteflies were then removed from the test plants with pressurized air. The spray solution was then applied to the test plants with a hand-held syringe fitted with hollow cone nozzle. One mL spray solution was applied to each leaf top and bottom for a total of 4 mL per plant. Four replications of each test compound utilized a total of 16 mL spray solution. Plants were air dried and then placed in a holding chamber (28° C. and 60% RH) for 13 days. Compound efficacy was evaluated by counting, under an illuminated magnifying glass, the number of large nymphs (3rd-4th instar) per leaf. Percent control based on reduction of large nymphs of a test compound compared to solution-only (no test compound) sprayed plants is reported in Table 1-8.

[5] = test system: tobacco budworm (Heliothis virescens); experiment: Insecticidal test for tobacco budworm, treated cotton cotyledon leaf disc; conditions: 2nd instar larvae on dipped cotton cotyledon discs, 5 days; for pest or weed control at 400 ppm: Heliothis virescens, foliar, 120 h, read-out: TBW: activity against tobacco budworm (% Control rating)
Description: as §1

[6] = test system: cotton aphid (Aphis gossypii); experiment: Insecticidal test for cotton aphid, sprayed squash cotyledons; conditions: 50 ppm spray, graded after 3 days
Description: Insecticidal test for cotton aphid (Aphis gossypii) To prepare spray solutions, 1 mg of each test compound was dissolved into 1 mL of a 90:10 acetone:ethanol solvent. This 1 mL of chemical solution was added to 19 mL of water containing 0.05% Tween 20 surfactant to produce a 50 ppm spray solution. Squash cotyledons were infested with cotton aphid (all life stages) 16-20 hours prior to application of spray solution. The solution was sprayed on both sides of each infested squash cotyledon (0.5 mL×2 each side) with a sweeping action until runoff. The plants were allowed to air dry and held for 3 days in a controlled room at 26° C. and 40% RH after which time the test was graded. Grading was by actual count using a dissecting microscope and comparison of test counts to the untreated check.

| Compound | pest or weed control at 400 ppm [1] [%] | pest or weed control at 400 ppm [2] [%] | pest or weed control at 2.5 ppm [3] [%] | pest or weed control at 400 ppm [5] [%] | other results |
| --- | --- | --- | --- | --- | --- |
| C[C@@H]1OC(c2c(F)cccc2F)=N[C@@H]1c1ccc(-c2ccc(C(F)(F)F)cc2)cc1 (mixture of isomers) [Compound 5, (4R,5S)- and 4S,5R)-2-(2,6-difluorophenyl)-5-methyl-4-[4′-(trifluoromethyl)-1,1′-biphenyl-4-yl]-4,5-dihydro-1,3-oxazole] | 90 to 100 | 90 to 100 | 90 to 100 |  |  |
| C[C@H]1OC(c2c(F)cccc2F)=N[C@H]1c1ccc(-c2ccc(OC(F)(F)F)cc2)cc1 (racemic) [Compound 6, (4S,5R)- and (4R,5S)-2-(2,6-difluorophenyl)-4-(4′-trifluoromethoxy-1,1′-biphenyl-4-yl)-5-methyl-4,5-dihydro-1,3-oxazole] |  |  |  |  | WF: activity against whitefly (% Control rating) [4]: B (80-89) |
| Cc1ccc(-c2ccc([C@@H]3N=C(c4c(F)cccc4F)O[C@@H]3C)cc2)cc1C (racemic) [Compound 8, (4S,5R)- and (4R,5S)-2-(2,6-difluorophenyl)-4-(3′,4′-dimethyl-1,1′-biphenyl-4-yl)-5-methyl-4,5-dihydro-1,3-oxazole] | 90 to 100 | 90 to 100 |  | 60 to 69 |  |
| CCOc1ccc(-c2ccc([C@H]3N=C(c4c(F)cccc4F)O[C@H]3C)cc2)cc1 (racemic) [Compound 12, (4R,5S)- and (4S,5R)-2-(2,6-difluorophenyl)-4-(4′-ethoxy-1,1′-biphenyl-4-yl)-5-methyl-4,5-dihydro-1,3-oxazole] | 90 to 100 | 90 to 100 |  | 80 to 89 |  |
| C[C@H]1OC(c2c(F)cccc2F)=NC1c1ccc(-c2ccc3c(c2)OC(F)(F)O3)cc1 (mixture of isomers) [Compound 13, (4R,5S)- and (4S,5R)-4-[4-(2,2-difluoro-1,3-benzodioxol-5-yl)phenyl]-2-(2,6-difluorophenyl)-5-methyl-4,5-dihydro-1,3-oxazole] |  | 90 to 100 |  | < 50 |  |
| C[C@@H]1OC(c2c(F)cccc2F)=N[C@@H]1c1ccc(-c2ccccc2F)cc1 (racemic) [Compound 15, (4R,5S)- and (4S,5R)-2-(2,6-difluorophenyl)-4-(2′-fluoro-1,1′-biphenyl-4-yl)-5-methyl-4,5-dihydro-1,3-oxazole] |  | 90 to 100 |  |  |  |
| Cc1ccccc1C1=N[C@H](c2ccc(Br)cc2)[C@H](C)O1 (racemic) [Compound 17, (4R,5S)- and (4S,5R)-4-(4-bromophenyl)-2-(2-methyl)-5-methyl-4,5-dihydro-1,3-oxazole] |  | < 50 |  | < 50 |  |
| C[C@H]1OC(c2c(F)cccc2F)=N[C@@H]1c1ccc(I)cc1 (racemic) [Compound 22, (4R,5R)- and (4S,5S)-4-(4-iodophenyl)-2-(2,6-difluorophenyl)-5-methyl-4,5-dihydro-1,3-oxazole] |  |  | 90 to 100 |  | CA: activity against cotton aphid (% Control rating) [6]: A (90-100) |
| C[C@H]1OC(c2c(F)cccc2Cl)=N[C@@H]1c1ccc(Br)cc1 (racemic) [Compound 23, (4R,5R)- and (4S,5S)-4-(4-bromophenyl)-2-(2-chloro-6-fluorophenyl)-5-methyl-4,5-dihydro-1,3-oxazole] |  | < 50 | 90 to 100 | 80 to 89 |  |
| C[C@@H]1OC(c2c(F)cccc2F)=N[C@H]1c1ccc(-c2ccc(C(F)(F)F)cc2)cc1 (racemic) [Compound 26, (4S,5S)- and (4R,5R)-2-(2,6-difluorophenyl)-5-methyl-4-[4′-(trifluoromethyl)-1,1′-biphenyl-4-yl]-4,5-dihydro-1,3-oxazole] | 90 to 100 | 90 to 100 | 90 to 100 |  |  |
| C[C@H]1OC(c2c(F)cccc2F)=N[C@@H]1c1ccc(-c2ccc(OC(F)(F)F)cc2)cc1 (racemic) [Compound 27, (4R,5R)- and (4S,5S)-2-(2,6-difluorophenyl)-4-(4′-trifluoromethoxy-1,1′-biphenyl-4-yl)-5-methyl-4,5-dihydro-1,3-oxazole] |  |  |  |  | TBW: activity against tobacco budworm (% Control rating) ([5]; 400 ppm): B (80-89); BAW: activity against beet armyworm (% Control rating) ([1]; 400 ppm): A (90-100); CL: activity against cabbage looper (% Control rating) ([2]; 400 ppm): A (90-100); SM: activity against two-spotted spider mite (% Control rating) ([3]; 2.5 ppm): A (90-100) |
| Cc1ccc(-c2ccc([C@@H]3N=C(c4c(F)cccc4F)O[C@H]3C)cc2)cc1C (racemic) [Compound 29, (4S,5S)- and (4R,5R)-2-(2,6-difluorophenyl)-4-(3′,4′-dimethyl-1,1′-biphenyl-4-yl)-5-methyl-4,5-dihydro-1,3-oxazole] |  | 90 to 100 |  |  |  |
| C[C@@H]1OC(c2c(F)cccc2F)=N[C@H]1c1ccc(-c2ccccc2F)cc1 (racemic) [Compound 31, (4S,5S)- and (4R,5R)-2-(2,6-difluorophenyl)-4-(2′-fluoro-1,1′-biphenyl-4-yl)-5-methyl-4,5-dihydro-1,3-oxazole] |  | 90 to 100 |  |  |  |
| CCOc1ccc(-c2ccc([C@@H]3N=C(c4c(F)cccc4F)O[C@H]3C)cc2)cc1 (racemic) [Compound 33, (4S,5S)- and (4R,5R)-2-(2,6-difluorophenyl)-4-(4′-ethoxy-1,1′-biphenyl-4-yl)-5-methyl-4,5-dihydro-1,3-oxazole] | 90 to 100 | 90 to 100 |  | 80 to 89 |  |
| C[C@H]1OC(c2c(F)cccc2F)=N[C@@H]1c1ccccc1 (racemic) [Compound 35, (4R,5R)- and (4S,5S)-4-phenyl-2-(2,6-difluorophenyl)-5-methyl-4,5-dihydro-1,3-oxazole] |  | < 50 |  | < 50 |  |
| C[C@H]1OC(c2c(F)cccc2F)=N[C@H]1c1ccc(-c2ccc(OC(F)(F)F)cc2)cc1 (stereo in doubt) [Compound 49, (4S,5R)-2-(2,6-difluorophenyl)-5-methyl-4-[4′-(trifluoromethoxy)-1,1′-biphenyl-4-yl]-4,5-dihydro-1,3-oxazole] | 90 to 100 | 90 to 100 | 90 to 100 | 80 to 89 | pest or weed control at 200 ppm ([4]; Bemisia, 312 h, read-out: WF: activity against whitefly (% Control rating)): 80 to 89% |
| C[C@@H]1OC(c2c(F)cccc2F)=N[C@@H]1c1ccc(-c2ccc(OC(F)(F)F)cc2)cc1 (stereo in doubt) [Compound 51, (4R,5S)-2-(2,6-difluorophenyl)-5-methyl-4-[4′-(trifluoromethoxy)-1,1′-biphenyl-4-yl]-4,5-dihydro-1,3-oxazole] | 90 to 100 | 90 to 100 | 90 to 100 | 80 to 89 | CA: activity against cotton aphid (% Control rating) [6]: F (less than 50) |
| C[C@@H]1OC(c2c(F)cccc2F)=N[C@H]1c1ccc(-c2ccc(OC(F)(F)F)cc2)cc1 [Compound 47, (4S,5S)-2-(2,6-difluorophenyl)-5-methyl-4-[4′-(trifluoromethoxy)-1,1′-biphenyl-4-yl]-4,5-dihydro-1,3-oxazole] | 90 to 100 | 90 to 100 | 90 to 100 |  |  |
| C[C@H]1OC(c2c(F)cccc2F)=N[C@@H]1c1ccc(-c2ccc(OC(F)(F)F)cc2)cc1 [Compound 53, (4R,5R)-2-(2,6-difluorophenyl)-5-methyl-4-[4′-(trifluoromethoxy)-1,1′-biphenyl-4-yl]-4,5-dihydro-1,3-oxazole] | 90 to 100 | 90 to 100 | 90 to 100 |  |  |
